# Experimental data taken from patent publication US20180028553A1, “USE OF STING AGONIST AS CANCER TREATMENT” (The University of Chicago, priority 2013, published 2018).
# “Also recorded” adds a separate entry of the source.
# What was measured:
# IFN-β = assay: Murine IFN-β ELISA, macrophages and BM-DCs; format: cell-based, mouse
# Procedure: Murine IFN-β ELISA. […] Conditioned media were collected after 4 hours. IFN-β concentration was assessed using VeriKine™ Mouse Interferon Beta ELISA Kit (PBL interferon source).
# SIY antigen = assay: IFN-γ ELISPOT and SIY-pentamer staining in B16.SIY tumor-bearing mice; format: in vivo, mouse
# Procedure: The mouse IFN-γ enzyme-linked Immunospot assay (ELISPOT) from BD is used according to the manufacturer's protocol. In brief, splenocytes are plated at 10^6 cells/well and stimulated overnight with SIY peptide (160 nM), PMA (50 ng/ml) and ionomycin (0.5 μM) as positive control, or medium (DMEM supplemented with 10% heat-inactivated FCS, penicillin, streptomycin, L-arginine, L-glutamine, folic acid, and L-asparagine) as negative control. IFN-γ spots are detected using biotinylated antibody and avidin-peroxidase and developed using AEC substrate (BD Bioscience). Plates are read in an Immunospot Series 3 Analyzer and analyzed with ImmunoSpot software (Cellular Technology Ltd).
# 5×10^6 cells/sample are labeled with PE-MHC class I tetramers (Beckman Coulter or Proimmune) consisting of murine H-2Kb complexed to either […] (SIY) peptide or […] (OVA) peptide as a negative control, anti-TCRβ-AF700 (clone H57-597), antiCD8-PO (clone 5H10), anti-CD4-PB (clone RM4-5), anti CD62L-PE_Cy7 (clone MEL-14), anti-CD44-APC (clone IM7) and the Fixable Viability dye eFluor780 (eBioScience). FACS analysis is performed using FACSCanto or LSR II cytometers with FACSDiva software (BD). Data analysis is conducted with FlowJo software (Tree Star).
# IFN-γ ELISPOT and SIY-pentamer staining. […] For the ELISPOTs, 10^6 splenocytes were plated per well and stimulated overnight with SIY peptide (160 nM) or AH1 (1 μM) peptide, with PMA (50 ng/ml) plus ionomycin (0.5 μM) as a positive control, or medium as negative control. Spots were developed using the BD mouse IFN-γ kit according to the manufacturer's instructions and the number of spots was measured using an Immunospot Series 3 Analyzer and analyzed using ImmunoSpot software (Cellular Technology Ltd). For SIY-pentamer staining, splenocytes were preincubated for 15 min with anti-CD16/32 monoclonal antibody (93) to block potential nonspecific binding, and labeled with PE-MHC class I pentamer (Proimmune) consisting of murine H-2K^b complexed to […] (SIY) peptide, anti-TCRβ-AF700 (H57-597), anti-CD8-Pacific Blue (53-6.7), anti-CD4-Pacific Orange (RM4-5) (all antibodies from BioLegend) and the Fixable Viability Dye eFluor 450 (eBioscience). Stained cells were analyzed using LSR II cytometer with FACSDiva software (BD). Data analysis was conducted with FlowJo software (Tree Star).
# [1] = system: innate cytokines in BM-DCs; assay: Quantitative RT-PCR analysis of cytokines in BM-DCs; format: cell-based, mouse; details: DMXAA 25 μg/ml, 4 h
# Procedure: Quantitative RT-PCR analysis of cytokines. […] Total RNA was isolated using the RNeasy® kit (Qiagen) and incubated with Deoxyribonuclease I, Amplification Grade (Invitrogen). cDNA was synthesized using High Capacity cDNA Reverse Transcription Kit (Applied Biosystem) and expression of cytokines was measured by real-time qRT-PCR using specific primers/probes for mouse INF-β, TNF-α, IL-6 and IL-12p40, using a 7300 Real Time PCR system (Applied Biosystem). The results are expressed as 2^−ΔCt using 18s as endogenous control.
# 4T-1 tumors = assay: Intratumoral treatment of 4T-1 tumors; format: in vivo, mouse; details: BALB/c mice, single IT dose of 500 μg DMXAA
# Procedure: (§1) In vivo tumor experiments. 10^6 of B16-SIY tumor cells, 5×10^4 B16.F10 tumor cells, 10^5 4T1 and CT26, or 10^6 other tumor cells were injected s.c. in 100 μl DPBS or HBSS on the right flank of mice. Following tumor implantation, mice were randomized into treatment groups. […] Measurements of tumors were performed twice per week using calipers, and the tumor volume was calculated with the formula: V=(length×width^2)/2. In some experiments, tumor-free survivors were rechallenged with tumor cells on the opposite flank several weeks after the injection of the primary tumor. Naïve mice were used as controls. For the contralateral experiments, mice were implanted on both flanks and only one tumor was treated. For the B16 melanoma lung metastasis experiments, mice were implanted on the flank with 5×10^4 cells B16.F10 on day 0, and then injected intravenously with 1×10^5 cells on day 7. Lungs were harvested on day 28. Administration of compounds, measurements of tumors and counting of lung tumors were performed in a blinded fashion.
# [2] = system: STING pathway (TBK1, IRF3 phosphorylation); assay: Western blot of pTBK1 and pIRF3 in macrophages and BM-DCs after STING agonist; format: cell-based, mouse
# Procedure: DMXAA for the same time-points. Proteins were extracted with Triton-X buffer (150 mM sodium chloride, 50 mM Tris, 1% Triton-X, pH 8.0) with proteinase inhibitors (Thermo scientific) and phosphatase inhibitors (Sigma). 30 μg of protein was electrophoresed in 10% SDS-PAGE gels and transferred onto Immobilon-FL membranes (Millipore). Blots were incubated with antibodies specific for phosphorylated TBK1 (Ser172), phosphorylated IRF3 (Ser396), total TBK1, STING and GAPDH (Cell Signaling) or total IRF3 (Invitrogen). Proteins from HEK 293T lines stably expressing STING were extracted with M-PER (Thermo Scientific). 6 μg of protein was loaded onto a 4-12% MES NuPAGE gel (Life Technologies), transferred to nitrocellulose, and probed with anti-HA antibody (Santa Cruz). Anti-rabbit IRDye 680RD label secondary antibody was used for visualization of bands with the Odyssey Imaging system (LI-COR).
# B16.F10 tumors = assay: Intratumoral treatment of established B16.F10 tumors; format: in vivo, mouse; details: C57BL/6 mice, single IT dose of 500 μg DMXAA
# Procedure: as §1
# tumors [3] = details: background statement; cited from earlier work
# tumors [4] = details: background statement; cited from earlier work; remark: listed apart in the source
# [5] = system: five hSTING alleles (WT, REF, HAQ, AQ and Q); assay: IFN-β luciferase reporter assay in HEK 293T cells expressing hSTING variants; format: cell-based, human; details: 100 μg/ml DMXAA, 6 hours
# Procedure: Luciferase Assay. […] After 20 min, stimulation mixtures were removed and normal media was added. After a total of 6 hours, cell lysates were prepared and reporter gene activity measured using the Dual Luciferase Assay System (Promega) on a Spectramax M3 luminometer.
compound,measurement,setting,value
"Cc1ccc2c(=O)c3cccc(CC(=O)O)c3oc2c1C [DMXAA, 5,6-dimethylXAA (xanthenone-4-acetic acid)]",IFN-β production,"IFN-β; BM-DC from WT versus STING^−/− mice, DMXAA",a high production of IFN-β
same,IFN-β production,"IFN-β; STING^−/− macrophages, DMXAA 50 μg/ml",only in WT macrophages; also recorded: not from STING^−/− macrophages
same,IFN-β production,"IFN-β; WT macrophages, DMXAA 50 μg/ml",high production of IFN-β; also recorded: IFN-β secretion was detected
same,frequencies of SIY-specific T cells,SIY antigen; STING^−/− mice,markedly reduced
same,SIY-specific CD8+ T cells by SIY pentamer staining,"SIY antigen; WT mice, spleens (b243 also tumors), after IT DMXAA",higher amount of CD8+ SIY specific T cells; also recorded: high frequency of SIY-specific CD8^+ T cells
same,endogenous T cell response against SIY (ELISPOT and CD8 SIY positive cells in spleen and tumors),SIY antigen; one week after injection,highly increased
same,increase in number of specific T cells producing IFN-g upon stimulation with SIY (ELISPOT),"SIY antigen; one week after injection, versus saline",10 fold
same,frequency of SIY-specific IFN-γ-producing T cells (ELISPOT),"SIY antigen; splenocytes 5 days after treatment, 500 μg IT, WT mice",marked increase
same,expression of innate cytokines,[1]; STING^−/− BM-DCs,not STING^−/− BM-DCs
same,expression of innate cytokines,[1]; WT BM-DCs,"upregulated other cytokines such as TNFα, IL6, IL1, IL10, and IL12 in a STING dependent manner; also recorded: IFN-β, TNF-α, IL-1β, IL-6 and IL12p35 were induced"
same,tumor growth,4T-1 tumors,significantly reduced the growth
same,"activation of the STING pathway (pTBK1, pIRF3)",[2]; BM-DC from WT or STING ko mice,same potent activation of the pathway
same,phosphorylation of TBK1 and IRF3,"[2]; STING deficient macrophages, DMXAA 50 μg/ml",not in STING deficient cells; also recorded: abolished
same,phosphorylation of TBK1 and IRF3,"[2]; STING^−/− macrophages reconstituted with mSTING-HA, DMXAA",restored phosphorylation of TBK1 and IRF3
same,phosphorylation of TBK1 and IRF3,"[2]; WT macrophages, DMXAA 50 μg/ml or ML RR-S2 CDA 50 μM",rapid and potent phosphorilation of TBK1 and IRF3; also recorded: phosphorylation of TBK1 and IRF3 was observed
same,tumor growth,B16.F10 tumors,significantly reduced the growth
same,antitumor effect,tumors [3],induced haemorrhagic necrosis and tumour regression
same,outcome of clinical trials for the treatment of tumors,tumors [4],all failed
same,IFN-β reporter activation,[5],failed to activate
